Three substances from article PMC12751141, “Disrupting α-Synuclein–ClpP interaction restores mitochondrial function and attenuates neuropathology in Parkinson’s disease models” (Molecular Neurodegeneration, 2025) can be followed below.

Series [1] concerns the target human recombinant αSyn pre-formed fibrils (PFF) (Type 1) (human). Put plainly: MST.
The target of series [2] is FITC-αSyn (human) (UniProt P37840). Put plainly: MST.
For series [3], the system named is αSyn PFF-seeded aggregation. Put plainly: αSyn ThT assay, PFF-seeded aggregation with recombinant ClpP. In kind it is biochemical, human. The following applies: ClpP 5/10 µM; αSyn PFF 1 µM; ThT 1 µM; PBS pH 7.4, 37 °C, 500 rpm, up to 48 h; ex 450 nm / em 485 nm; n = 4. The procedure: αSyn monomer (5µM) and PFF (1µM) were incubated with recombinant ClpP (5/10µM) and Thioflavin T (ThT) (1µM) in 100 µl PBS (pH 7.4) at 37 °C in a shaking incubator (500 rpm). ThT fluorescence was measured (excitation 450 nm, emission 485 nm) every 15 min up to 48 h.
Fig. 1 ClpP modulates αSyn tetramer and aggregates. […] (B) Western blot and quantification of αSyn tetramer/monomer ratio and oligomer/monomer ratio, upon intact cell DSG-crosslinking, in HEK293T cells overexpressing Myc-tagged WT αSyn with EV or Flag-tagged S153A-ClpP (n = 4–5, two-tailed Student’s t test). (C) Fluorescent images and quantification of αSyn aggregation in SH-SY5Y cells overexpressing EV or ClpP with vectors expressing Venus-N-αSyn (VN) and αSyn-C-Venus (VC) (n = 7, two-tailed Student’s t test, Scale bar = 10 μm). (D) Fluorescent images and quantification of αSyn aggregation in control knock-down (Consh) or ClpP knock-down (ClpPsh) SH-SY5Y cells overexpressing VN and VC (n = 4, two-tailed Student’s t test, Scale bar = 10 μm). (E) In vitro αSyn PFF (1µM) – seeded aggregation in the absence (control) or presence of ClpP (5/10µM) was monitored by thioflavin T (ThT) fluorescence (n = 4, two-tailed Student’s t test). […]

Series [4] concerns αSyn oligomerization (VN/VC-αSyn), SH-SY5Y cells. Put plainly: BiFC split-Venus αSyn oligomerization in SH-SY5Y cells. The class given is cell-based. The text has this: To construct truncated-αSyn plasmids, pcDNA3.1(-) was digested with BsteII and XbaI, and ΔN-, ΔC- and ΔNAC-αSyn was PCR-amplified using self-designed primers and inserted into the plasmid backbone. Cells were transfected with TransIT-2020 (Mirus Bio, LLC) following the manufacturer’s protocol.
(§1) The bimolecular fluorescence was examined 24-hour after transfection (n = 3, one-way ANOVA with Tukey’s post-hoc test, scale bar = 30 μm). (D) Quantification of the concentration (ng/ml) of extracellular αSyn monomer and oligomer, and intracellular αSyn oligomer in Tet-inducible SH-SY5Y cells that were pre-treated with TAT or CS2 peptide 30-minute before adding doxycycline (Dox) to induce αSyn expression. The concentration of αSyn species was determined by ELISA (n = 4, one-way ANOVA with Tukey’s post-hoc test; data are mean ± SEM). (E) Representative images of Mito-SOX staining in SH-SY5Y cells that were pre-treated with TAT or CS2 peptide and transfected with split Venus-αSyn vectors. Mitochondrial ROS production was determined by Mito-SOX staining after 24-hour transfection (n = 4, two-tailed Student’s t test, scale bar = 30 μm).
The bimolecular fluorescence was examined 24-hour after the transfection and quantitated (n = 14 areas/group, one-way ANOVA with Tukey’s post-hoc test, data are mean ± SEM).

The test system of series [5] is ClpP (SH-SY5Y cells). Nature of the series: ClpP protein level, western blot, SH-SY5Y cells. In kind it is cell-based. The following applies: WT or A53T αSyn overexpression; 30 min pretreatment; n = 4–5 (CS1: n = 4). For orientation: A western blot detects proteins with antibodies after separation by electrophoresis.
Series [6] deals with SH-SY5Y cells. Put plainly: Mitochondrial ROS (Mito-SOX) in SH-SY5Y cells. The class given is cell-based. The following applies: SH-SY5Y expressing VN/VC-αSyn (CS1: WT αSyn); Mito-SOX 5 µM; vs TAT. The procedure:
Cells cultured on coverslips or 24-well plates were washed with DPBS and then incubated with 5 µM Mito-SOX™ Red (Invitrogen, M36008), a mitochondrial superoxide indicator, for 10 min at 37 °C. For cells cultured on coverslips, the images were visualized by microscope, and quantification of images was then carried out using NIH ImageJ software. At least 100 cells per group were counted in the analysis.
as §1

For series [7], the system named is ClpP (HEK293T cells). Nature of the series: ClpP protein level, western blot, HEK293T cells. In kind it is cell-based. The following applies: WT or A53T αSyn overexpression; 30 min pretreatment; n = 4–5 (CS1: n = 4).
Series [8] relates to ClpP–αSyn interaction. Nature of the series: Co-immunoprecipitation of ClpP with αSyn constructs in HEK293T cell lysates. In kind it is cell-based. As for the experimental part:
Myc-tagged WT- and A53T- αSyn, Myc-tagged ClpP, and Flag-tagged WT- and S153A- ClpP plasmids were self-constructed as previously described (Ref). To construct truncated-αSyn plasmids, pcDNA3.1(-) was digested with BsteII and XbaI, and ΔN-, ΔC- and ΔNAC-αSyn was PCR-amplified using self-designed primers and inserted into the plasmid backbone. Cells were transfected with TransIT-2020 (Mirus Bio, LLC) following the manufacturer’s protocol.
(§2) Cells or tissues were lysed in total lysis buffer (50mM Tris-HCl, pH 7.5, 150mM NaCl, 1% Triton X-100, and protease inhibitor). Total protein lysates (800 µg) were incubated with the indicated antibodies overnight at 4 °C followed by the addition of protein A/G beads (sc-2003, Santa Cruz) for 2 h at 4 °C. Various recombinant αSyn and Clpp (500 ng) were incubated in in vitro interaction buffer (20mM Tris-HCl pH 7.5, 100mM KCl, 2mM MgCl2 and 0.1% Triton-X100) for 30 min at room temperature, and then incubated with indicated antibodies overnight at 4 °C followed by the addition of protein A/G beads for 2 h at 4 °C. The beads with immuno-precipitates were pulled down at 4000 g and washed four times with total lysis buffer/in vitro interaction buffer in the presence of 0.1% Triton X-100 and were analyzed by western blot analysis.
Shown are representative blots of 3 independent experiments. Quantification of the ratio of αSyn over ClpP (pull-down) (n = 4, two-tailed Student’s t test, data are mean ± SEM).

Series [9] deals with αSyn–ClpP binding. Nature of the series: Immunoprecipitation of recombinant ClpP and αSyn in vitro. Also noted: species or system human. Particulars: recombinant ClpP pre-incubated with peptide 30 min before αSyn; anti-ClpP IP; 3 independent experiments. The procedure:
The human recombinant WT- (#S-1001-2), A53T- (#S-1001-2), ΔNAC- (#S-1015-1) and ΔC- (#S-1012-1) αSyn and FITC-αSyn (S-1113-2) were purchased from rPeptide. The human recombinant αSyn pre-formed fibrils (PFF) (Type 1) (SPR-322) and ATTO-594-PFF (SPR-322B-A594) were purchased from StressMarq Biosciences (Bioactivity has been widely validated via various approaches, e.g. TEM, ThT).
as §2

On to “Decoy peptide CS2 (TAT-C6-GGVVTA) (from UniProt P04608 47-57)”, for which the Kd in series [1] amounted to 4 µM; in series [2], 7 µM.

“recombinant ClpP protein: human recombinant ClpP obtained from Dr. Aaron Schimmer”: in series [3], the PFF-ThT fluorescence entry is given as “dose-dependent suppression of PFF-ThT fluorescence intensity”.

TAT-C6-GAVVTG [CS1, decoy peptide]: the “BiFC signal / αSyn oligomerization” value in series [4] (SH-SY5Y expressing VN/VC-αSyn, 24-hour after transfection) is “failed to restore ClpP expression (Fig. S4A and B), reduce αSyn oligomerization”. In series [4] (in vitro or in vivo), the “αSyn aggregation, discussion summary” value is given as “no effect, either in vitro or in vivo”. Besides, the “ClpP protein level, SH-SY5Y” value in series [5] is reported as “failed to restore ClpP expression”. In addition, in series [6], the “mitochondrial ROS (Mito-SOX intensity)” value was “failed to restore ClpP expression (Fig. S4A and B), reduce αSyn oligomerization (Fig. S4C), or suppress ROS”. Also, the “ClpP protein level, HEK293T” value in [7] was “failed to restore ClpP expression”. Also, in series [8] (HEK293T lysates, Flag-ClpP + Myc-ΔC-αSyn), the “ClpP binding to ΔC-αSyn” value is recorded as “not CS1, abolished the binding”. Besides, the “ClpP binding to ΔN-αSyn” value in [8] (HEK293T lysates, Flag-ClpP + Myc-ΔN-αSyn) is reported as “not CS1, abolished the binding”. In series [8] (HEK293T lysates, WT αSyn, CS2: 24-hour treatment), the “ClpP binding to WT-αSyn” value is recorded as “not CS1, abolished the binding”. In series [8] (in vitro or in vivo), the “αSyn-ClpP interaction, discussion summary” value was “no effect, either in vitro or in vivo”. Further, the “αSyn–ClpP binding, recombinant” value in [9] was “no effect”.

For orientation: Kd means the concentration at which binding is half-saturated.
